In PMC3480796 (Indian Journal of Pharmacology, 2012):

Molecular target: cystic fibrosis transmembrane conductance regulator (CFTR) (Homo sapiens, UniProt P13569)
Assay: apical chloride current
Assay type: cell-based

Sequence of cystic fibrosis transmembrane conductance regulator (CFTR) (P13569 whole entry): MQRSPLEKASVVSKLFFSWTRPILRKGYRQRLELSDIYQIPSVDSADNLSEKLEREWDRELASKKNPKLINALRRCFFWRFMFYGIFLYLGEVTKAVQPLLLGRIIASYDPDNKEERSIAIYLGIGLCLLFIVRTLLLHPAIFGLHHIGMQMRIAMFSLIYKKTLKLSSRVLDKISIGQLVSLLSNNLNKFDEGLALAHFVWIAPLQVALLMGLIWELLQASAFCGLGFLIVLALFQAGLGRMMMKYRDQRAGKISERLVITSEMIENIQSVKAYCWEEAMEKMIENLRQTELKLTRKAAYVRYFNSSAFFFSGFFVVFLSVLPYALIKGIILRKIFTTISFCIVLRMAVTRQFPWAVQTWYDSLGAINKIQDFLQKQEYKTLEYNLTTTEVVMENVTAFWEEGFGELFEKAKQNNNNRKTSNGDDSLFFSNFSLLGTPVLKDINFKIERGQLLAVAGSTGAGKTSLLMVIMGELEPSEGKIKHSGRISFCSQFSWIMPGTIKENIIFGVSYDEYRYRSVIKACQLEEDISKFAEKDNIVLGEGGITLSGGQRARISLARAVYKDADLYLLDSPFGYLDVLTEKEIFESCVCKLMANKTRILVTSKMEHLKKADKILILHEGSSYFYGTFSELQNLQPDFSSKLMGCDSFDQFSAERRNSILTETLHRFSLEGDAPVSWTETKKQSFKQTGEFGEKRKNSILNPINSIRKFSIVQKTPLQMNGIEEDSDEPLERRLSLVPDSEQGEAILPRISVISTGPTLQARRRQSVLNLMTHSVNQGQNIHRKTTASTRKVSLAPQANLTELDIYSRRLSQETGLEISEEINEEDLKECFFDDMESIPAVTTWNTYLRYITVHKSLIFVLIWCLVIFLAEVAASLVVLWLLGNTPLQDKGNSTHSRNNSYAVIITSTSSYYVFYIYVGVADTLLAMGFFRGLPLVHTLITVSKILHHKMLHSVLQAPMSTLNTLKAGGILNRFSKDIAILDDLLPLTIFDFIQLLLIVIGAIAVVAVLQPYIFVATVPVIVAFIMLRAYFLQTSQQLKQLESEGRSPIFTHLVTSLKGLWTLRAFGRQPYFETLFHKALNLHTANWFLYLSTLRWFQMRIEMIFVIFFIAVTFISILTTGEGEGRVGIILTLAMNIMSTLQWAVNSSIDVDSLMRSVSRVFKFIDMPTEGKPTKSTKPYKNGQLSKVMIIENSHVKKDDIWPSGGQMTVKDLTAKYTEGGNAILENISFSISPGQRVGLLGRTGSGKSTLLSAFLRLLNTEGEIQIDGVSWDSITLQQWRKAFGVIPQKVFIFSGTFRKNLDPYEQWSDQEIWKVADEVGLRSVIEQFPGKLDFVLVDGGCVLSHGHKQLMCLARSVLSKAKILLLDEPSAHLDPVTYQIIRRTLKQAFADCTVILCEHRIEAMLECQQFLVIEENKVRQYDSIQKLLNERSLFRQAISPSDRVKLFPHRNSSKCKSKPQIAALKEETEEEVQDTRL

CCOC(=O)CSc1nc2ccccc2c(=O)n1-c1ccccc1C [DQA, ethyl 2-(4-oxo-3-o-tolyl-3,4-dihydroquinazolin-2-ylthio)acetate]
IC50: ~20 µM
